For 1 compound, Ki app results are on record in publication PMC6927398 (Journal of the American Chemical Society, 2019).

The assay addresses IvoA (Aspergillus nidulans, UniProt C8V7P4). Put plainly: chiral HPLC of D-tryptophan formation, steady-state kinetics. In kind it is biochemical. To be noted: substrate inhibition; ATP-dependent stereoinversion, apparent constant.

Sequence of IvoA (C8V7P4 whole entry): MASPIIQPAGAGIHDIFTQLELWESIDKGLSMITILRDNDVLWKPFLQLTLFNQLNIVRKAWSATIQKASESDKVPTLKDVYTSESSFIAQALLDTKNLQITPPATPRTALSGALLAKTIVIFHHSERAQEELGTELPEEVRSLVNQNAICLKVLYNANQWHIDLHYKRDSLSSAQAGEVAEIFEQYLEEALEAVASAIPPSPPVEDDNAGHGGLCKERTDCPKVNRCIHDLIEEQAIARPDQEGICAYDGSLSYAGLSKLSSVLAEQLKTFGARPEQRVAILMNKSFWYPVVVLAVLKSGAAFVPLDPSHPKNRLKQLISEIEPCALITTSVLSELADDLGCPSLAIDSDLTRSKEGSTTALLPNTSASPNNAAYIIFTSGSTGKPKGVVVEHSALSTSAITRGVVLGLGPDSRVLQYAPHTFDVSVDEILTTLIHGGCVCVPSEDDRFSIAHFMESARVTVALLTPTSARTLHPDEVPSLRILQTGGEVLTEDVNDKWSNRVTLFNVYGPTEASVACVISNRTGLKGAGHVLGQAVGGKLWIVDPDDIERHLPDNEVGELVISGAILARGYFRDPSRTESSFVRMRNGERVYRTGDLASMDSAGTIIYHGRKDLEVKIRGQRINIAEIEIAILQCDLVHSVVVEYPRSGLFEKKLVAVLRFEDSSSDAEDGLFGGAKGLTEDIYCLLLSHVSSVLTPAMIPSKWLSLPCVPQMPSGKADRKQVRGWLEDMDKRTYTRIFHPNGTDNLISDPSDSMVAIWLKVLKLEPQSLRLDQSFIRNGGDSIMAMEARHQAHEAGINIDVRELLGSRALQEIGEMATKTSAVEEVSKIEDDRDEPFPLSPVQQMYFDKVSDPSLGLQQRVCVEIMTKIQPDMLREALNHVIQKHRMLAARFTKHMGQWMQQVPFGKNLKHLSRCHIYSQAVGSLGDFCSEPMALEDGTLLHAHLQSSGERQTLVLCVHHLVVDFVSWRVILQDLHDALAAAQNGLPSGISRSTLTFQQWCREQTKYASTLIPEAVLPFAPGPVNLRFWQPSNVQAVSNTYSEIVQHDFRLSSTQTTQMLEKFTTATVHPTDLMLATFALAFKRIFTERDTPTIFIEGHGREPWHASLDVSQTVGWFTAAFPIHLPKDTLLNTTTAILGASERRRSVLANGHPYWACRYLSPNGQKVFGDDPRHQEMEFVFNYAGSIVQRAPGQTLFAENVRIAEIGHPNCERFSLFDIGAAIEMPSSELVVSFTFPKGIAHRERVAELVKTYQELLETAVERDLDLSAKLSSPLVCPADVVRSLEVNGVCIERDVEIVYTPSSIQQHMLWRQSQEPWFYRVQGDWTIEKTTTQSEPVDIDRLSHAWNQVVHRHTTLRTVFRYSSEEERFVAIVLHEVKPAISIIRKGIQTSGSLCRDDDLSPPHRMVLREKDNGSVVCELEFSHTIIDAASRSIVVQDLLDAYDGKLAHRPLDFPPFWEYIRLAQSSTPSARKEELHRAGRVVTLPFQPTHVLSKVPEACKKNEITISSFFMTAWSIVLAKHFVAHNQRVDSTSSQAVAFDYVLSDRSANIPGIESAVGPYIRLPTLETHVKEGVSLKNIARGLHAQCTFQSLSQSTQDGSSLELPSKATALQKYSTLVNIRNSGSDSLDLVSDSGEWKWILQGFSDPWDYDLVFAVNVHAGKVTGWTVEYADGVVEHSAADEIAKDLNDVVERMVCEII

With `N[C@@H](Cc1c[nH]c2ccccc12)C(=O)O` [L-tryptophan], the Ki app is given as 4 ± 1 mM.
